Data on 31 compounds can be found in patent US9127024B2 (Intrexon Corporation, priority 2013, dated 2015).

Molecules are shown by their SMILES. Some results are limits rather than exact numbers.

For one experiment, the target named is RheoSwitch® (CHO-K1_RS-1 cells, firefly Luciferase reporter) (Choristoneura fumiferana, UniProt O77240). The experiment in a line: in vitro gene switch assay (fLUC Luciferase expression, potency screen). It counts as cell-based. To be noted: read-out: fLUC assay EC50, 24 hours with compound, 25 μM to 2.5 pM, figure in parentheses after a value not defined. From the text: Gene switch assays are disclosed, e.g., in U.S. Pat. Nos. 8,076,517; 7,456,315; 7,304,161; and 6,258,603.
Chain of RheoSwitch® (CHO-K1_RS-1 cells, firefly Luciferase reporter) (O77240 1-513): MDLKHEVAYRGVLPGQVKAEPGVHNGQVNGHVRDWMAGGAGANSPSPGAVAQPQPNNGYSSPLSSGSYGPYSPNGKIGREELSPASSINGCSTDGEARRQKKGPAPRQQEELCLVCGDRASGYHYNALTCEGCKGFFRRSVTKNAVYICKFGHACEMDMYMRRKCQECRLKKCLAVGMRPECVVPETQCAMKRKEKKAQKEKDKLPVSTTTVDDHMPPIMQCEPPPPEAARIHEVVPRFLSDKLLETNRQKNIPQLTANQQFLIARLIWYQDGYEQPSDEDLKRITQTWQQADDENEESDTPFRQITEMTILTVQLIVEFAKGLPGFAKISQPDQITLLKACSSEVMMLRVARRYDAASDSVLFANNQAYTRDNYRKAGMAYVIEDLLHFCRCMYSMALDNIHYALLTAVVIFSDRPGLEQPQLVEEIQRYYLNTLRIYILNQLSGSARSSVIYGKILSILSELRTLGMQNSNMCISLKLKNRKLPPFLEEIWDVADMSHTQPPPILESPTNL
CHO-K1 cells were stably transfected with a plasmid (RS-1, FIG. 1) coding for firefly Luciferase (fLUC) under the control of the RheoSwitch® resulting in the stable cell line CHO-K1_RS-1. A master cell bank was created containing approximately 100 vials at 5×10^6 cells per vial. One vial of CHO-K1_RS-1 was thawed and cultured for two weeks prior to each in vitro potency screening.
Twenty-four (24) hours prior to treatment with the control and test compounds the CHO-K1_RS-1 cells were seeded into white-opaque 384-well cell culture plates at 3,600 cells per well in 30 μl of culture medium. The cells were incubated in a humidified CO2 incubator at 37° C. until compound treatment.
Compounds were prepared at 25 mM in 100% dry DMSO and stored at room temperature in sealed 1 ml tubes prior to subsequent dilution and assay. On the day of cell treatment the tubes containing the control and test compounds were sorted and the ligands transferred to a 96-well polypropylene plate for subsequent dilution. The compounds were diluted in 100% dry DMSO in an 8-point, 10-fold dilution series ranging from 25 mM to 2.5 nM using the Biomek FX automated liquid handler.
The diluted compounds were then transferred to each well of 384-well polypropylene plate in quadruplicate resulting in a single 384-well plate with four replicates of each compound dilution in a different quadrant of the plate. Each well on the 384-well plate received 20 μl of diluted compound. The 384-well plates containing diluted compound and the plates containing cells in culture were loaded onto the Biomek FX and 30 nl of compound was delivered to each well containing cells using a 384-pin V&P Scientific Pin Tool. The resulting 1000-fold dilution (30 nl to 30 μl) generated a final dosing range of 25 μM to 2.5 pM in 0.1% DMSO. Two replicate plates were produced to supply a dedicated plate for the Luciferase expression assay and the APH cell viability assay.
The cells were incubated with the compound for 24 hours in a humidified CO2 incubator at 37° C. Following incubation, the cells were assayed for Luciferase expression (fLUC assay) using the Steady Glo assay from Promega. Cells were equilibrated to room temperature for 15 minutes prior to reagent addition. Thirty micro liters (30 μl) of assay reagent was added to each well of the 384-well plate using the Biomek FX. The reagent was incubated with the cells for 10-120 minutes prior to reading on a Molecular Devices Spectramax L luminometer. The assay reagents were prepared as per the manufacturer's instructions.
The Luciferase expression data was normalized to the baseline signal from cells treated with DMSO alone. The ratio of signal from treated cells to vehicle-treated cells was plotted and non-linear regress was performed using Graph Pad Prism software. EC50, (log)EC50 and Hill slope data was generated. Reporter gene expression, e.g., luciferase expression, serves as a proxy for the expression of a gene of interest. See, e.g., US 2009/0123441 and WO 2011/119773.
For `CCCC(N(NC(=O)c1cccc(B2OC(C)(C)C(C)(C)O2)c1C)C(=O)c1cccc(B2OC(C)(C)C(C)(C)O2)c1C)C(C)(C)C` (racemic) [compound 41], the EC50 was about 14000 nM. As for `CCC[C@@H](N(NC(=O)c1ccc(B(O)O)cc1C(C)C)C(=O)c1cc(C)cc(C)c1)C(C)(C)C` [compound 10], the EC50 came out at 1240 nM. Consider `CC[C@@H](N(NC(=O)c1ccc2c(c1)B(O)OC2)C(=O)c1cc(C)cc(C)c1)C(C)(C)C` [compound 52], for which the EC50 came out at 287 nM. Take `CCC[C@@H](N(NC(=O)c1ccc(CCCB(O)O)c(OC(F)F)c1C)C(=O)c1cc(C)cc(C)c1)C(C)(C)C` [Cpd. No. 28]: the EC50 turned out to be 57.7 nM. Turning to `CCC(N(NC(=O)c1cccc(OC)c1C)C(=O)c1cc(B(O)O)cc([N+](=O)[O-])c1)C(C)(C)C` (racemic) [compound 36], the EC50 is over 25000 nM. `CCC(CF)N(NC(=O)c1ccc2c(c1C)OCCOB2O)C(=O)c1cc(C)cc(C)c1` (racemic) [Cpd. No. 82]: the concentration for a half-maximal effect (EC50) turned out to be 2610 nM. `CC[C@@H](N(NC(=O)c1ccc(B(O)O)c(OCCOC)c1C)C(=O)c1cc(C)cc(C)c1)C(C)(C)C` [Cpd. No. 26, (R)-(4-(2-(3,5-dimethylbenzoyl)-2-(2,2-dimethylpentan-3-yl)hydrazinecarbonyl)-2-(2-methoxyethoxy)-3-methylphenyl)boronic acid]: the EC50 came to 1670 nM. Turning to `Cc1cc(C)cc(C(=O)N(NC(=O)c2ccc(B(O)O)cc2)C(C)(C)C)c1` [Cpd. No. 7], the EC50 turned out to be 1010 nM. As for `CCc1c(OC)cccc1C(=O)NN(C(=O)c1ccc(B(O)O)cc1)C(C)(C)C` [compound 40], the EC50 came out at 5250 nM.

On to `CCC(N(NC(=O)c1cccc(OC)c1C)C(=O)c1cc(F)cc(B(O)O)c1)C(C)(C)C` (racemic) [compound 35], for which the EC50 turned out to be 2600 nM. As for `Cc1cc(C)cc(C(=O)N(NC(=O)c2cccc(B3OC(C)(C)C(C)(C)O3)c2C)C(C)(C)C)c1` [compound 43], the EC50 amounted to 1420 nM. Consider `CCC(N(NC(=O)c1cccc(OC)c1C)C(=O)c1cc(OC)cc(B(O)O)c1)C(C)(C)C` (racemic) [compound 37], for which the EC50 was 2110 nM.

Consider `[2H]C([2H])([2H])c1cc(C(=O)N(NC(=O)c2ccc3c(c2F)B(O)OC3)[C@H](CC)C(C)(C)C)cc(C([2H])([2H])[2H])c1` [compound 60], for which the EC50 amounted to 123 nM. Take `[2H]C([2H])([2H])c1cc(C(=O)N(NC(=O)c2ccc(B(O)O)cc2F)[C@H](CC)C(C)(C)C)cc(C([2H])([2H])[2H])c1` [compound 15]: the EC50 is 52.3 nM. For `CCC(N(NC(=O)c1cccc(B2OC(C)(C)C(C)(C)O2)c1C)C(=O)c1cc(OC)c(C)c(OC)c1)C(C)(C)C` (racemic) [compound 47], the EC50 stood at 1640 nM. As for `CCCC(N(NC(=O)c1cccc(B2OC(C)(C)C(C)(C)O2)c1C)C(=O)c1cc(C)cc(C)c1)C(C)(C)C` (racemic) [compound 44], the EC50 was found to be 250 nM. With `Cc1cc(C)cc(C(=O)N(NC(=O)c2c(F)cc(B(O)O)cc2F)C(C)(C)C)c1` [Cpd. No. 25, (4-(2-(tert-butyl)-2-(3,5-dimethylbenzoyl) hydrazinecarbonyl)-3,5-difluorophenyl)boronic acid], the EC50 was determined as 796 nM. `CCC[C@@H](N(NC(=O)c1ccc2c(c1C)OB(O)CCC2)C(=O)c1cc(C)cc(C)c1)C(C)(C)C` [Cpd. No. 70, (R)—N′-(3,5-dimethylbenzoyl)-N′-(2,2-dimethylhexan-3-yl)-2-hydroxy-9-methyl-2,3,4,5-tetrahydrobenzo[f][1,2]oxaborepine-8-carbohydrazide]: the EC50 amounted to 40.6 nM. Turning to `CC[C@H](N(NC(=O)c1ccc2c(c1C)OCCOB2O)C(=O)c1cc(C)cc(C)c1)C(C)(C)C` [compound 80], the EC50 came to 867 nM. For `CCC(N(NC(=O)c1ccc2c(c1)B(O)OC2)C(=O)c1cc(C)cc(C)c1)C(C)(C)C` (racemic) [Cpd. No. 51], the EC50 came to 432 nM.

For `Cc1cc(C)cc(C(=O)N(NC(=O)c2ccc3c(c2C)OCCOB3O)C(c2ccccc2)C(C)(C)C)c1` (racemic) [Cpd. No. 83, N′-(2,2-dimethyl-1-phenylpropyl)-N′-(3,5-dimethylbenzoyl)-1-hydroxy-6-methyl-3,4-dihydro-1H-benzo[c][1,5,2]dioxaborepine-7-carbohydrazide], the EC50 stood at 65.9 nM. As to `Cc1cc(C)cc(C(=O)N(NC(=O)c2ccc(B(O)O)cc2C(C)C)C(C)(C)C)c1` [compound 11], the EC50 was found to be 14100 nM.

As for `Cc1cc(C)cc(C(=O)N(NC(=O)c2ccc(B(O)O)cc2Cl)C(C)(C)C)c1` [compound 21], the EC50 came to 1630 nM.

In the case of `CCC[C@@H](N(NC(=O)c1ccc(CCCB2OC(C)(C)C(C)(C)O2)c(OC(F)F)c1C)C(=O)c1cc(C)cc(C)c1)C(C)(C)C` [compound 30], the EC50 worked out at 50.8 nM. As to `CCC(c1ccccc1)N(NC(=O)c1ccc(B(O)O)cc1F)C(=O)c1cc(C)cc(C)c1` (racemic) [compound 18], the EC50 was 203 nM.

Still in this experiment, the particulars now being: read-out: fLUC assay EC50 Run 1, 24 hours with compound, Run 1.
For `Cc1cc(C)cc(C(=O)N(NC(=O)c2ccc3c(c2F)COB3O)C(c2ccccc2)C(C)(C)C)c1` (stereo not shown) [Cpd. No. 89, N′-(2,2-dimethyl-1-phenylpropyl)-N′-(3,5-dimethylbenzoyl)-4-fluoro-1-hydroxy-1,3-dihydrobenzo[c][1,2]oxaborole-5-carbohydrazide], the EC50 is about 362 nM.

Turning to `CCC[C@@H](N(NC(=O)c1ccc([B-](F)(F)F)cc1F)C(=O)c1cc(C)cc(C)c1)C(C)(C)C` [Cpd. No. 93, potassium (R)-(4-(2-(3,5-dimethylbenzoyl)-2-(2,2-dimethylhexan-3-yl)hydrazine-1-carbonyl)-3-fluorophenyl)trifluoroborate], the EC50 was determined as 66.8 nM. Still for that read-out and setting: the same measure for `CC[C@@H](N(NC(=O)c1ccc2c(c1C)OCCNB2O)C(=O)c1cc(C)cc(C)c1)C(C)(C)C` [Cpd. No. 92, (R)-N′-(3,5-dimethylbenzoyl)-N′-(2,2-dimethylpentan-3-yl)-1-hydroxy-6-methyl-1,2,3,4-tetrahydrobenzo[f][1,4,5]oxazaborepine-7-carbohydrazide]: 187 nM. `CCOCc1ccc(C(=O)NN(C(=O)c2cc(C)cc(C)c2)[C@H](CC)C(C)(C)C)c(F)c1B(O)O` [compound 90, (R)-(3-(2-(3,5-dimethylbenzoyl)-2-(2,2-dimethylpentan-3-yl)hydrazine-1-carbonyl)-6-(ethoxymethyl)-2-fluorophenyl)boronic acid]: the EC50 came to 389 nM.

Consider `CC[C@@H](N(NC(=O)c1ccc(COC)c(B2OC(C)(C)C(C)(C)O2)c1F)C(=O)c1cc(C)cc(C)c1)C(C)(C)C` [Cpd. No. 87, (R)-N′-(3,5-dimethylbenzoyl)-N′-(2,2 dimethylpentan-3-yl)-2-fluoro-4-(methoxymethyl)-3-(4,4,5,5-tetramethyl-1,3,2-dioxaborolan-2-yl)benzohydrazide], for which the EC50 worked out at 47.6 nM.

In the case of `Cc1cc(C)cc(C(=O)N(NC(=O)c2ccc3c(c2C)OCCNB3O)C(C)(C)C)c1` [Cpd. No. 91, N′-(tert-butyl)-N′-(3,5-dimethylbenzoyl)-1-hydroxy-6-methyl-1,2,3,4-tetrahydrobenzo[f][1,4,5]oxazaborepine-7-carbohydrazide], the concentration giving a half-maximal response (EC50) came to 132 nM.

The same experiment, now with this note: read-out: fLUC assay EC50 Run 2, 24 hours with compound, Run 2.
For the compound `Cc1cc(C)cc(C(=O)N(NC(=O)c2ccc3c(c2F)COB3O)C(c2ccccc2)C(C)(C)C)c1` (stereo not shown) [Cpd. No. 89, N′-(2,2-dimethyl-1-phenylpropyl)-N′-(3,5-dimethylbenzoyl)-4-fluoro-1-hydroxy-1,3-dihydrobenzo[c][1,2]oxaborole-5-carbohydrazide], the EC50 is about 303 nM.

As for `CCC[C@@H](N(NC(=O)c1ccc([B-](F)(F)F)cc1F)C(=O)c1cc(C)cc(C)c1)C(C)(C)C` [Cpd. No. 93, potassium (R)-(4-(2-(3,5-dimethylbenzoyl)-2-(2,2-dimethylhexan-3-yl)hydrazine-1-carbonyl)-3-fluorophenyl)trifluoroborate], the EC50 came to 122 nM. Regarding `CC[C@@H](N(NC(=O)c1ccc2c(c1C)OCCNB2O)C(=O)c1cc(C)cc(C)c1)C(C)(C)C` [Cpd. No. 92, (R)-N′-(3,5-dimethylbenzoyl)-N′-(2,2-dimethylpentan-3-yl)-1-hydroxy-6-methyl-1,2,3,4-tetrahydrobenzo[f][1,4,5]oxazaborepine-7-carbohydrazide], the EC50 amounted to 116 nM. On to `CCOCc1ccc(C(=O)NN(C(=O)c2cc(C)cc(C)c2)[C@H](CC)C(C)(C)C)c(F)c1B(O)O` [compound 90, (R)-(3-(2-(3,5-dimethylbenzoyl)-2-(2,2-dimethylpentan-3-yl)hydrazine-1-carbonyl)-6-(ethoxymethyl)-2-fluorophenyl)boronic acid], for which the EC50 is about 266 nM.

For the compound `CC[C@@H](N(NC(=O)c1ccc(COC)c(B2OC(C)(C)C(C)(C)O2)c1F)C(=O)c1cc(C)cc(C)c1)C(C)(C)C` [Cpd. No. 87, (R)-N′-(3,5-dimethylbenzoyl)-N′-(2,2 dimethylpentan-3-yl)-2-fluoro-4-(methoxymethyl)-3-(4,4,5,5-tetramethyl-1,3,2-dioxaborolan-2-yl)benzohydrazide], the EC50 turned out to be 96.4 nM.

With `Cc1cc(C)cc(C(=O)N(NC(=O)c2ccc3c(c2C)OCCNB3O)C(C)(C)C)c1` [Cpd. No. 91, N′-(tert-butyl)-N′-(3,5-dimethylbenzoyl)-1-hydroxy-6-methyl-1,2,3,4-tetrahydrobenzo[f][1,4,5]oxazaborepine-7-carbohydrazide], the EC50 came out at 86.9 nM.

Usually EC50 stands for the midpoint of the concentration-response curve.
